Measurements published in patent publication US20190030036A1, “PHOSPHODIESTERASE INHIBITOR TREATMENT” (Cyrano Therapeutics, Inc., priority 2013, published 2019).

Columns and labels:
[1] = test system: cGMP; assay: Parotid saliva cGMP after oral theophylline (Example 2); assay type: in vivo, human; settings: for saliva cGMP levels over initial values: improved patients; for cGMP: parotid saliva
Procedure: Parotid saliva was collected from each patient by application of a Lashley cup over Stensen's duct with lingual stimulation by placement of concentrated lemon juice. Saliva was collected in plastic tubes and stored at −20° C. until assayed. cAMP and cGMP were measured in saliva by a sensitive 96 plate spectrophotometric assay (R&D Systems, Minneapolis, Minn.).
All patients were placed in a fixed design open label clinical trial with treatment with oral theophylline. Treatment consisted of fixed treatment periods of two-eight months with sequential doses of the drug at 200 mg, 400 mg and 600 mg. At termination of each of these intervals, patients returned to study site for reevaluation. At the end of each interval subjective responses to treatment were measured with a modification of the 0-100 scale previously used. Subjective responses to treatment were graded on a sliding scale from −100−0-+100 with patients recording improvement (+0-+100), no improvement (0) or worsening (0-−100) of their overall smell function. If overall smell function improved ≥5% they were considered to improve clinically (1). If smell function improved <5% they were considered not to improve (1). At the end of each interval subjective measurements of smell function, measurements of DT, RT, ME and H and measurements of parotid saliva for levels of cAMP and cGMP were obtained. In addition, blood plasma was obtained by venipuncture, placed in ice into zinc free tubes which contained 100 mg zinc free heparin, centrifuged at 3000 rpm for 10-20 min, the plasma transferred to plastic PCR tubes and stored at −20° C. until assayed. Theophylline was assayed by a fluorescence polarization assay (Abbott, Chicago, Ill.), as previously described.
Data for the cyclic nucleotides from these 31 patients was not analyzed until the entire study of the 312 patients in Example 1 was assembled and analyzed in its entirety. After completion of these analyses, all data for parotid saliva cAMP and cGMP from all patients in whom salivary cAMP and cGMP were obtained were assembled. Levels of salivary cyclic nucleotides varied widely. Initially, without external criteria, there was no way to understand these disparate data. […] In a similar manner, measurements of each patient's plasma theophylline level at each dosage of theophylline (at 200 mg, 400 mg, 600 mg of theophylline) were categorized. The two patient groups were also analyzed post hoc with respect to type of smell loss and etiology of smell loss.

[2] = test system: patients with hyposmia; assay: Subjective overall change in smell function; open trial of oral theophylline; assay type: in vivo, human
Procedure: Independently, patients were also required to grade their ability to smell daily on a scale from 0-100, with 0 reflecting no overall smell function over a 24 hour period, 100 reflecting normal overall smell function over this period and numbers from 0-100 reflecting their estimation of their overall ability to smell odors over this period.
After determination of hyposmia, patients were treated in an open label, fixed design, controlled open trial. Patients were given an oral extended release theophylline in divided daily doses taken in the middle of breakfast and lunch. All patients were initially given 200 mg of theophylline; changes in this dose were made based upon subjective responses to therapy. If at a subsequent return visit, patients reported ≥5% subjective improvement in overall smell function, they continued on this same dose of theophylline and were reevaluated after four to six months of continued treatment. Results from any subsequent return from these improved patients were not included in any subsequent data report. All subsequent comparisons between treated and untreated patients were made only between those patients continuing in the study compared to their own measurements obtained in the untreated state. If patients reported <5% subjective improvement, their theophylline dose was increased by 200 mg daily and they were scheduled for retesting at the study site after two to four months at this new dosage. For patients that reported <5% improvement, this sequence continued until patients reached 800 mg of theophylline, at which time the study was considered completed.
Patients returned for reevaluation after two to four months of treatment. Measurements of blood serum theophylline were measured by a fluorescence polarization assay (Abbott, Chicago, Ill.). At this time, subjective changes in smell function were measured independently (compared to patient's memory of previous normal smell function monitored by use of the patients' daily measurements) using the scale from −100−0-+100 previously described. After independently recording their subjective responses, smell function was measured for all four odors with DT, RT, ME and H determined without recourse to prior measurements.
Subjective overall changes in smell acuity were reported by telephone and by FAX or email at two—four month intervals after treatment was initiated using the standardized form in which they measured daily changes in smell acuity using the −100−0-+100 scale as noted above. Using the same criteria noted above, if at their initial two—four month call-in they reported improvement in smell acuity of ≥5%, they continued at 200 mg and returned to the study site at four—six months on this treatment dose. If they reported improvement in smell acuity of <5% their dose of theophylline was increased to 400 mg for an additional two—four months and they then called the study site at the end of this period.

[3] = test system: patients with hyposmia and hypogeusia; assay: Gustometry (DT, RT, ME, HR for 4 tastants) (Example 8); assay type: in vivo, human
Source text: Measurements included determination of detection thresholds (DTs), recognition thresholds (RTs), magnitude estimation (ME), and hedonic response (HR) for 4 odors (e.g., pyridine [dead fish], nitrobenzene [bitter almond], thiophene [petroleum], and amyl acetate [banana oil]) (olfactometry) and for 4 tastants (e.g., sodium chloride [salt], sucrose [sweet], […] [sour], and urea [bitter]) (gustometry).

Cn1c(=O)c2[nH]cnc2n(C)c1=O [theophylline]
saliva cGMP levels over initial values ([1]; oral theophylline 400 mg): 275% | saliva cGMP levels over initial values ([1]; oral theophylline 600 mg): 338% | cGMP ([1]; oral theophylline 200 mg, patients with improved smell function (15)): 0.08 ± 0.016 pmol/mL | cGMP ([1]; oral theophylline 200 mg, patients with unimproved smell function (9)): 0.07 ± 0.018 pmol/mL | cGMP ([1]; oral theophylline 400 mg, patients with unimproved smell function (4)): 0.05 ± 0.014 pmol/mL | cGMP ([1]; oral theophylline 600 mg, patients with unimproved smell function (5)): 0.04 ± 0.07 pmol/mL | patients improved ≥5% (subjective smell function) ([2]; oral theophylline 200 mg daily, two-six months, 199 returning patients): 17.1% | improved patients who considered their smell function had returned to normal ([2]; oral theophylline 200 mg daily, of 34 improved patients): 26.5% | non-returning patients reporting >5% improvement ([2]; oral theophylline 200 mg, 15 non-returning patients): 46.7% | improved non-returning patients reporting a return to normal ([2]; oral theophylline 200 mg, non-returning patients): 14.3% | patients improved ≥5% (subjective smell function) ([2]; oral theophylline 400 mg daily, two-six months, 120 patients): 29.2% | improved patients who considered their smell function had returned to normal ([2]; oral theophylline 400 mg daily, of 35 improved patients): 8.6% | patients improved ≥5% (subjective smell function) ([2]; oral theophylline 600 mg daily, two-12 months, 160 patients): 41.2% | patients who considered their smell function had returned to normal ([2]; oral theophylline 600 mg daily, 17 patients): 10.6% | patients improved ≥5% (subjective smell function) ([2]; oral theophylline 800 mg daily, two-12 months, 28 patients): 53.6% | patients who considered their smell function had returned to normal ([2]; oral theophylline 800 mg daily, three patients): 33% | improved patients reporting smell function returned to normal ([2]; oral theophylline 200-600 mg, Type III hyposmia): 60% | patients reporting >5% improvement ([2]; oral theophylline 200-600 mg, eight patients with Type III hyposmia): 62.5% | patients reporting >5% improvement ([2]; oral theophylline 200-800 mg, 96 patients with Type I hyposmia): 33.3% | patients reporting >5% improvement ([2]; oral theophylline 200-800 mg, 208 patients with Type II hyposmia): 62% | improved patients reporting smell function returned to normal ([2]; oral theophylline 200-800 mg, Type I hyposmia): 15.6% | improved patients reporting smell function returned to normal ([2]; oral theophylline 200-800 mg, Type II hyposmia): 20.2% | responsive patients who considered smell function returned to normal levels ([2]; oral theophylline, 34 of 157): 21.7% | patients subjectively responsive to treatment ([2]; oral theophylline, 157 of the 312 patients): 50.3% | all patients in the study who considered smell function returned to normal ([2]; oral theophylline, all 312 patients): 10.9% | Magnitude estimations for all tastants ([3]; intranasal theophylline vs before any treatment or after oral theophylline): higher (more intense) | DTs and RTs for all tastants ([3]; intranasal theophylline vs before treatment or after oral theophylline): lower (more sensitive) | mean serum theophylline level (during intranasal theophylline 20 μg/d in each naris): 0.0 (0.0) | mean (SEM) serum theophylline level (human, in vivo, po): 6.4 (2.0) mg/L
